Data reported in publication PMC4823954, “From fighting depression to conquering tumors: a novel tricyclic thiazepine compound as a tubulin polymerization inhibitor” (Cell Death & Disease, 2016).

How the values were obtained:
Experiment in all cases: KINOMEscan
Type in all cases: binding
Conditions in all cases: read-out: % Ctrl
KIT(V559D,T670I) = target: T1, KIT(V559D,T670I) (Homo sapiens, UniProt P10721, T670I/V559D)
T1 construct: purchased DiscoveRx KINOMEscan

MAP3K15 = target: T2, MAP3K15 (Homo sapiens, UniProt Q6ZN16)
T2 construct: purchased DiscoveRx KINOMEscan
Summary of the method: (§1)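 Competition binding panel of 442 non-mutant kinases: test compound at 5 and 10 μM competed with an active-site-directed ligand for 1 h with shaking. Bound kinase was eluted with 0.5 μM ligand and quantified by qPCR; %Ctrl = (compound − positive control)/(DMSO − positive control) × 100, lower meaning tighter binding.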

RET = target: T3, RET (Homo sapiens, UniProt P07949)
T3 construct: purchased DiscoveRx KINOMEscan
Summary of the method: as §1

ACVR1B = target: T4, ACVR1B (Homo sapiens, UniProt P36896)
T4 construct: purchased DiscoveRx KINOMEscan
Summary of the method: as §1

PIM1 = target: T5, PIM1 (Homo sapiens, UniProt P11309)
T5 construct: purchased DiscoveRx KINOMEscan
Summary of the method: as §1

NEK1 = target: T6, NEK1 (Homo sapiens, UniProt Q96PY6)
T6 construct: purchased DiscoveRx KINOMEscan
Summary of the method: as §1

BMPR1B = target: T7, BMPR1B (Homo sapiens, UniProt O00238)
T7 construct: purchased DiscoveRx KINOMEscan
T7 sequence (O00238 14-502): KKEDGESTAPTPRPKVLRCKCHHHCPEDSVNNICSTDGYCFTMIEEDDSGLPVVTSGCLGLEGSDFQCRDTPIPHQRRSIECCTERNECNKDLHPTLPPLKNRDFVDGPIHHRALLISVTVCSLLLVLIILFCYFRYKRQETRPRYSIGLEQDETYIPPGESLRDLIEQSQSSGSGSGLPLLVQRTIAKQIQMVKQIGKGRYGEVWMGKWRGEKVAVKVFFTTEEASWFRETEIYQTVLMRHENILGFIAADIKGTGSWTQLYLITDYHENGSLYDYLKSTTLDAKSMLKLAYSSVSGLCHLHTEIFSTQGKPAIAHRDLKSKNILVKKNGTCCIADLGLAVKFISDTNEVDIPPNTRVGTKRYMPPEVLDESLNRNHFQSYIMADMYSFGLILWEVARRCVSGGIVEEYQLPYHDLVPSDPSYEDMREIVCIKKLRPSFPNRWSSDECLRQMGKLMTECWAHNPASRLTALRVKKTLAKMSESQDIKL
Summary of the method: as §1

YANK1 = target: T8, YANK1 (Homo sapiens, UniProt Q8WU08)
T8 construct: purchased DiscoveRx KINOMEscan
Summary of the method: as §1

LIMK1 = target: T9, LIMK1 (Homo sapiens, UniProt P53667)
T9 construct: purchased DiscoveRx KINOMEscan
Summary of the method: as §1

NLK = target: T10, NLK (Homo sapiens, UniProt Q9UBE8)
T10 construct: purchased DiscoveRx KINOMEscan
Summary of the method: as §1

PRKG1 = target: T11, PRKG1 (Homo sapiens, UniProt Q13976)
T11 construct: purchased DiscoveRx KINOMEscan
Summary of the method: as §1

TLK2 = target: T12, TLK2 (Homo sapiens, UniProt Q86UE8)
T12 construct: purchased DiscoveRx KINOMEscan
Summary of the method: as §1

AMPK-alpha2 = target: T13, AMPK-alpha2 (Homo sapiens, UniProt P54646)
T13 construct: purchased DiscoveRx KINOMEscan
Summary of the method: as §1

MELK = target: T14, MELK (Homo sapiens, UniProt Q14680)
T14 construct: purchased DiscoveRx KINOMEscan
Summary of the method: as §1

CDKL5 = target: T15, CDKL5 (Homo sapiens, UniProt O76039)
T15 construct: purchased DiscoveRx KINOMEscan
T15 sequence (O76039 whole entry): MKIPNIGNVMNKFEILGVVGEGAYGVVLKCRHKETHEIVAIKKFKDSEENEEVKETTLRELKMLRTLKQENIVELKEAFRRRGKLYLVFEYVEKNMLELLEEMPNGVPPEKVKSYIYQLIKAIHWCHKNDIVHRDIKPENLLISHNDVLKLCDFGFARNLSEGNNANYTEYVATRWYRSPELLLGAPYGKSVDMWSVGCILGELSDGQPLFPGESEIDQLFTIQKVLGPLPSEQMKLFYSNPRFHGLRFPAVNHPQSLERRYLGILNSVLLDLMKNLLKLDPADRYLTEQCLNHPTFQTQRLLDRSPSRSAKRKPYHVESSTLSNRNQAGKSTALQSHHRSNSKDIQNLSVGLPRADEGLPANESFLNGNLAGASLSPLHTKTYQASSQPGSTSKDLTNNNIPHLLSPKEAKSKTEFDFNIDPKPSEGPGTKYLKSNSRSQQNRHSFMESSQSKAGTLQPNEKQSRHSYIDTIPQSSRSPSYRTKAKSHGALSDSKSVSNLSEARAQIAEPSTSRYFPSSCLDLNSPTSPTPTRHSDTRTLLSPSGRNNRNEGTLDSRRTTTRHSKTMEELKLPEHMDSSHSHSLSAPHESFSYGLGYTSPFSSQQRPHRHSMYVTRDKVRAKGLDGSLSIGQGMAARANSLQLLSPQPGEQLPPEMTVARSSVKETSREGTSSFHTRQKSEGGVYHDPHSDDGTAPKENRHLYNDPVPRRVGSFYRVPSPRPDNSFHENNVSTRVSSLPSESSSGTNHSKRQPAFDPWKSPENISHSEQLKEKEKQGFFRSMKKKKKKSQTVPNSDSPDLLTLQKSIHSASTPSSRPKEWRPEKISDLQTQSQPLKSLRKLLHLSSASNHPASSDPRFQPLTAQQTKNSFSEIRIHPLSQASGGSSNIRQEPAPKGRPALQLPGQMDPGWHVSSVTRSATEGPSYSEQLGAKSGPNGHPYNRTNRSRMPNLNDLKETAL
Summary of the method: as §1

PAK3 = target: T16, PAK3 (Homo sapiens, UniProt O75914)
T16 construct: purchased DiscoveRx KINOMEscan
Summary of the method: as §1

FGFR3 = target: T17, FGFR3 (Homo sapiens, UniProt P22607)
T17 construct: purchased DiscoveRx KINOMEscan
T17 sequence (P22607 23-806): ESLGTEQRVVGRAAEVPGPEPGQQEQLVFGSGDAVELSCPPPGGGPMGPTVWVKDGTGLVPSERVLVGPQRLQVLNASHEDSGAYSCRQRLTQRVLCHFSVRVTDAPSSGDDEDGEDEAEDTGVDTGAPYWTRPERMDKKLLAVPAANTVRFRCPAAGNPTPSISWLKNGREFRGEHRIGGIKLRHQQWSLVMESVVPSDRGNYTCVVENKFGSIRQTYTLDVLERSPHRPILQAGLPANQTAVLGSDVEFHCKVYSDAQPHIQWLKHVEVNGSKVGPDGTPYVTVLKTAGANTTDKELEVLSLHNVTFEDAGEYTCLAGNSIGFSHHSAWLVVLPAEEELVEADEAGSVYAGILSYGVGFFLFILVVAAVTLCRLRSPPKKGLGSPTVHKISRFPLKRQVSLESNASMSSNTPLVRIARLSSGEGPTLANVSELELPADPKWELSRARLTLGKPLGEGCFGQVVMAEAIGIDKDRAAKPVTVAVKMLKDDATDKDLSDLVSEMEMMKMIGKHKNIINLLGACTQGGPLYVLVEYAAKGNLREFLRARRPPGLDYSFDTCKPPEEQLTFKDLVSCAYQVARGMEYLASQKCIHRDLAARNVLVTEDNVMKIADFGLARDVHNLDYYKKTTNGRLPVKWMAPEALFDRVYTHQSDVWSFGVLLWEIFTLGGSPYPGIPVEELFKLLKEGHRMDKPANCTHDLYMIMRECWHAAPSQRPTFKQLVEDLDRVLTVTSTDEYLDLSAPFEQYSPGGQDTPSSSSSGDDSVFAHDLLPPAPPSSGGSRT
Summary of the method: as §1

NEK4 = target: T18, NEK4 (Homo sapiens, UniProt P51957)
T18 construct: purchased DiscoveRx KINOMEscan
T18 sequence (P51957 whole entry): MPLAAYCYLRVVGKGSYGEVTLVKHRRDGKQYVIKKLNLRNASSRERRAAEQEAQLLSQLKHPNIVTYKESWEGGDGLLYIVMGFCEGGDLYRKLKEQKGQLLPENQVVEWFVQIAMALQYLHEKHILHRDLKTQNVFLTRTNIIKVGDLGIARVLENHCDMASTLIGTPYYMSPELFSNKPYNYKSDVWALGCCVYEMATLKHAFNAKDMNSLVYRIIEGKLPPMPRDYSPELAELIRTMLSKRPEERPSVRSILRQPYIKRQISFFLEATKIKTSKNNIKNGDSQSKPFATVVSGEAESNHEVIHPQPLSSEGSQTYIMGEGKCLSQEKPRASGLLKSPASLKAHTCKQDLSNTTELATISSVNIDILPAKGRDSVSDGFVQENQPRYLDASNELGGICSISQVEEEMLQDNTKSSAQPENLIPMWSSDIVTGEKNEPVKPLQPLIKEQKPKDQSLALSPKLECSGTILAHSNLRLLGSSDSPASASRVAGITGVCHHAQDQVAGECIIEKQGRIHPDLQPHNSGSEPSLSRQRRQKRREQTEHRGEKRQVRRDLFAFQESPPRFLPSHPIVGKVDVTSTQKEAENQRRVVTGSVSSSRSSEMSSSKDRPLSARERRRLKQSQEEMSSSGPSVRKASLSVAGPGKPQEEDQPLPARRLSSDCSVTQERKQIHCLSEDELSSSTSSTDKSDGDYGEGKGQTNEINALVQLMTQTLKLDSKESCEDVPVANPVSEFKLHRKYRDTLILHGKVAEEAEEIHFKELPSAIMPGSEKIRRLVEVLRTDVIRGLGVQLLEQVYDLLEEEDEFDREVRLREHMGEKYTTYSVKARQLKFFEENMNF
Summary of the method: as §1

ERK1 = target: T19, ERK1 (Homo sapiens, UniProt P27361)
T19 construct: purchased DiscoveRx KINOMEscan
Summary of the method: as §1

MLCK = target: T20, MLCK (Homo sapiens, UniProt Q32MK0)
T20 construct: purchased DiscoveRx KINOMEscan
T20 sequence (Q32MK0 whole entry): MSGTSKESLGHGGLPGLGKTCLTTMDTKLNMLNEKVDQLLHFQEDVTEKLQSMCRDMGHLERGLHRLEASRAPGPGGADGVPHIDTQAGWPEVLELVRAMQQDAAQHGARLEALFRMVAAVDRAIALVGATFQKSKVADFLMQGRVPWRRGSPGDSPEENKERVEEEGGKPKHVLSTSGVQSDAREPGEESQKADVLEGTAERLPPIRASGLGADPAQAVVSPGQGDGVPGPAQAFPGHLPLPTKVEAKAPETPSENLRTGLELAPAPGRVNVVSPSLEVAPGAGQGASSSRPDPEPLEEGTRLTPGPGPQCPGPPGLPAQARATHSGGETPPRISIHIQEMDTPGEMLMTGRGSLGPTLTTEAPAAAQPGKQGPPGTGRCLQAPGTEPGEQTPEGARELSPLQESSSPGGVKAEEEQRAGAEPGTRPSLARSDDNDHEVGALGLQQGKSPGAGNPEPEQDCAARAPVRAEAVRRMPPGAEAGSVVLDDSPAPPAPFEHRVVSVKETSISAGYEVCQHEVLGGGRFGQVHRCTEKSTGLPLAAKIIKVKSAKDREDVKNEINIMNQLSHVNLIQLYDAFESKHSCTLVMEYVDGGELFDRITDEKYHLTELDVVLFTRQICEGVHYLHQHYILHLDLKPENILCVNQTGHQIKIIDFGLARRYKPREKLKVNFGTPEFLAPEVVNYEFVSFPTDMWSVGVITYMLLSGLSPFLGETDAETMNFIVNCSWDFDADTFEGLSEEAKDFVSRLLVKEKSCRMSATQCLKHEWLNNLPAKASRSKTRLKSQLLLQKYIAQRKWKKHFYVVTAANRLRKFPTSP
Summary of the method: as §1

CSNK1G2 = target: T21, CSNK1G2 (Homo sapiens, UniProt P78368)
T21 construct: purchased DiscoveRx KINOMEscan
Summary of the method: as §1

MYLK2 = target: T22, MYLK2 (Homo sapiens, UniProt Q9H1R3)
T22 construct: purchased DiscoveRx KINOMEscan
Summary of the method: as §1

TNK1 = target: T23, TNK1 (Homo sapiens, UniProt Q13470)
T23 construct: purchased DiscoveRx KINOMEscan
Summary of the method: as §1

PHKG1 = target: T24, PHKG1 (Homo sapiens, UniProt Q16816)
T24 construct: purchased DiscoveRx KINOMEscan
T24 sequence (Q16816 whole entry): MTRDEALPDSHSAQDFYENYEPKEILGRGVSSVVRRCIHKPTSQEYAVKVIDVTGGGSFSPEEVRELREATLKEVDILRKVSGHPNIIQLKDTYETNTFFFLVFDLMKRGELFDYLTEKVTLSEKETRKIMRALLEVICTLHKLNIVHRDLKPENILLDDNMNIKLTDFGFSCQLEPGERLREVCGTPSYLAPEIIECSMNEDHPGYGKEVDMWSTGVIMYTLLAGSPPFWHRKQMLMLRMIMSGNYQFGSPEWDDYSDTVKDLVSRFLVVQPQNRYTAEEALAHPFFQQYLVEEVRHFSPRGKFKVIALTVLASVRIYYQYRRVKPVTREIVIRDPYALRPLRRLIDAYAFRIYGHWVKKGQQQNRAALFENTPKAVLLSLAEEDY
Summary of the method: as §1

PRKD1 = target: T25, PRKD1 (Homo sapiens, UniProt Q15139)
T25 construct: purchased DiscoveRx KINOMEscan
Summary of the method: as §1

TXK = target: T26, TXK (Homo sapiens, UniProt P42681)
T26 construct: purchased DiscoveRx KINOMEscan
T26 sequence (P42681 whole entry): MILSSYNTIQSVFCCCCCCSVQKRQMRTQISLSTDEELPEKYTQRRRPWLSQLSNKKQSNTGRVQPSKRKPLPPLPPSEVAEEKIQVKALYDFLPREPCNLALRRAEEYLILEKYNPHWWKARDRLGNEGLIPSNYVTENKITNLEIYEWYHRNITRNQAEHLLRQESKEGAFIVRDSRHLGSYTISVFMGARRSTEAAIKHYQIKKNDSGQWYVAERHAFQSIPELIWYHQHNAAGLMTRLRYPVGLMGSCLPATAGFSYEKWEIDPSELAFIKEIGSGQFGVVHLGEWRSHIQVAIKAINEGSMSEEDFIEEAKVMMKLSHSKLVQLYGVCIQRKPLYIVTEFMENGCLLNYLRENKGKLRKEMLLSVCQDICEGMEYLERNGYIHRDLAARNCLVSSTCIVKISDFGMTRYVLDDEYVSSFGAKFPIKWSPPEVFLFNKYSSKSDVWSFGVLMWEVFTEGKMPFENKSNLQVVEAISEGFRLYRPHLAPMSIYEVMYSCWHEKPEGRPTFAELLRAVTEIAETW
Summary of the method: as §1

PKMYT1 = target: T27, PKMYT1 (Homo sapiens, UniProt Q99640)
T27 construct: purchased DiscoveRx KINOMEscan
Summary of the method: as §1

MYLK4 = target: T28, MYLK4 (Homo sapiens, UniProt Q86YV6)
T28 construct: purchased DiscoveRx KINOMEscan
Summary of the method: as §1

DAPK2 = target: T29, DAPK2 (Homo sapiens, UniProt Q9UIK4)
T29 construct: purchased DiscoveRx KINOMEscan
Summary of the method: as §1

PCTK3 = target: T30, PCTK3 (Homo sapiens, UniProt Q07002)
T30 construct: purchased DiscoveRx KINOMEscan
Summary of the method: as §1

BLK = target: T31, BLK (Homo sapiens, UniProt P51451)
T31 construct: purchased DiscoveRx KINOMEscan
Summary of the method: as §1

Compound: Cc1ccc(C2=Nc3cccnc3S(=O)(=O)c3ccccc32)cc1 [TBPT, 6-(p-tolyl)benzo[f] pyrido[2,3-b][1,4] thiazepine 11,11-dioxide]
- remaining binding at 5 µM (KIT(V559D,T670I); 5 μM): 94%
- remaining binding at 10 µM (KIT(V559D,T670I); 10 μM): 100%
- remaining binding at 5 µM (MAP3K15; 5 μM): 100%
- remaining binding at 10 µM (MAP3K15; 10 μM): 100%
- remaining binding at 5 µM (RET; 5 μM): 100%
- remaining binding at 10 µM (RET; 10 μM): 87%
- remaining binding at 5 µM (ACVR1B; 5 μM): 98%
- remaining binding at 10 µM (ACVR1B; 10 μM): 91%
- remaining binding at 5 µM (PIM1; 5 μM): 91%
- remaining binding at 10 µM (PIM1; 10 μM): 90%
- remaining binding at 5 µM (NEK1; 5 μM): 90%
- remaining binding at 10 µM (NEK1; 10 μM): 100%
- remaining binding at 5 µM (BMPR1B; 5 μM): 95%
- remaining binding at 10 µM (BMPR1B; 10 μM): 88%
- remaining binding at 5 µM (YANK1; 5 μM): 96%
- remaining binding at 10 µM (YANK1; 10 μM): 100%
- remaining binding at 5 µM (LIMK1; 5 μM): 100%
- remaining binding at 10 µM (LIMK1; 10 μM): 100%
- remaining binding at 5 µM (NLK; 5 μM): 83%
- remaining binding at 10 µM (NLK; 10 μM): 89%
- remaining binding at 5 µM (PRKG1; 5 μM): 96%
- remaining binding at 10 µM (PRKG1; 10 μM): 100%
- remaining binding at 5 µM (TLK2; 5 μM): 100%
- remaining binding at 10 µM (TLK2; 10 μM): 100%
- remaining binding at 5 µM (AMPK-alpha2; 5 μM): 81%
- remaining binding at 10 µM (AMPK-alpha2; 10 μM): 95%
- remaining binding at 5 µM (MELK; 5 μM): 100%
- remaining binding at 10 µM (MELK; 10 μM): 100%
- remaining binding at 5 µM (CDKL5; 5 μM): 100%
- remaining binding at 10 µM (CDKL5; 10 μM): 100%
- remaining binding at 5 µM (PAK3; 5 μM): 100%
- remaining binding at 10 µM (PAK3; 10 μM): 100%
- remaining binding at 5 µM (FGFR3; 5 μM): 89%
- remaining binding at 10 µM (FGFR3; 10 μM): 100%
- remaining binding at 5 µM (NEK4; 5 μM): 65%
- remaining binding at 10 µM (NEK4; 10 μM): 99%
- remaining binding at 5 µM (ERK1; 5 μM): 100%
- remaining binding at 10 µM (ERK1; 10 μM): 100%
- remaining binding at 5 µM (MLCK; 5 μM): 92%
- remaining binding at 10 µM (MLCK; 10 μM): 95%
- remaining binding at 5 µM (CSNK1G2; 5 μM): 100%
- remaining binding at 10 µM (CSNK1G2; 10 μM): 100%
- remaining binding at 5 µM (MYLK2; 5 μM): 100%
- remaining binding at 10 µM (MYLK2; 10 μM): 82%
- remaining binding at 5 µM (TNK1; 5 μM): 100%
- remaining binding at 10 µM (TNK1; 10 μM): 97%
- remaining binding at 5 µM (PHKG1; 5 μM): 100%
- remaining binding at 10 µM (PHKG1; 10 μM): 94%
- remaining binding at 5 µM (PRKD1; 5 μM): 100%
- remaining binding at 10 µM (PRKD1; 10 μM): 78%
- remaining binding at 5 µM (TXK; 5 μM): 100%
- remaining binding at 10 µM (TXK; 10 μM): 75%
- remaining binding at 5 µM (PKMYT1; 5 μM): 86%
- remaining binding at 10 µM (PKMYT1; 10 μM): 99%
- remaining binding at 5 µM (MYLK4; 5 μM): 94%
- remaining binding at 10 µM (MYLK4; 10 μM): 99%
- remaining binding at 5 µM (DAPK2; 5 μM): 100%
- remaining binding at 10 µM (DAPK2; 10 μM): 99%
- remaining binding at 5 µM (PCTK3; 5 μM): 82%
- remaining binding at 10 µM (PCTK3; 10 μM): 100%
- remaining binding at 5 µM (BLK; 5 μM): 88%
- remaining binding at 10 µM (BLK; 10 μM): 88%
